Where two headings read alike, the source gives them in different places.
Biological target: LRRK2 (leucine-rich repeat kinase 2) (Homo sapiens (Human), UniProt Q5S007)
Assay: Inhibitory effect on LRRK2 in vitro (LANCE kinase assay)
Type: biochemical
Method: The inhibitory effect of Compounds 1 to 62 on LRRK2 (leucine-rich repeat kinase 2) in vitro was measured. In the analysis of the results, IC50 values were calculated for a quantitative comparison of the in vitro activity.
After the compound was dissolved in 100% DMSO at 10 mM, it was serially diluted to the range of 1 μM to 10 μM using biochemical LRRK2 assay buffer (50 mM HEPES (4-(2-hydroxyethyl)-1-piperazineethanesulfonic acid) pH 7.5, 10 mM MgCl2, 1 mM EGTA (1,2-bis(o-aminophenoxy)ethane-N,N,N′,N′-tetraacetic acid), 2 mM DTT (dithiothreitol), and 0.01% TWEEN-20 (Aldrich)). Purified LRRK2 (CARNA BIOSCIENCES) was added to a black U-bottom 96-well microtiter plate containing 6 μl of the serially diluted compound, followed by incubation at room temperature for 30 minutes. For the kinase reaction, ATP and a substrate solution specific urea-polypeptide (ULIGHT™-poly TK, PerkinElimer) were added. The reaction was carried out at room temperature for 1 hour, and it was detected with an detection solution (brand name: LANCE™) containing EDTA. A LANCE detection solution containing europium-labeled antibody ([…] PT66) was added, followed by incubation at room temperature for 50 minutes, to terminate the kinase experiment. The phosphorylated substrate was detected by 665 nm emission measurement. IC50 values were calculated by a non-linear regression analysis using a Prism program (PRISM™ software) with reference to the absence of a kinase inhibitor.
As a comparative assay, a compound LRR2-IN-1, that known to be a reference compound for LRRK2 inhibitor, have also tested an inhibitory activity.

[1] = Table 1, class symbols, read-out: LRRK2 inhibition rate (IC50)

LRRK2 (leucine-rich repeat kinase 2), sequence (Q5S007 whole entry): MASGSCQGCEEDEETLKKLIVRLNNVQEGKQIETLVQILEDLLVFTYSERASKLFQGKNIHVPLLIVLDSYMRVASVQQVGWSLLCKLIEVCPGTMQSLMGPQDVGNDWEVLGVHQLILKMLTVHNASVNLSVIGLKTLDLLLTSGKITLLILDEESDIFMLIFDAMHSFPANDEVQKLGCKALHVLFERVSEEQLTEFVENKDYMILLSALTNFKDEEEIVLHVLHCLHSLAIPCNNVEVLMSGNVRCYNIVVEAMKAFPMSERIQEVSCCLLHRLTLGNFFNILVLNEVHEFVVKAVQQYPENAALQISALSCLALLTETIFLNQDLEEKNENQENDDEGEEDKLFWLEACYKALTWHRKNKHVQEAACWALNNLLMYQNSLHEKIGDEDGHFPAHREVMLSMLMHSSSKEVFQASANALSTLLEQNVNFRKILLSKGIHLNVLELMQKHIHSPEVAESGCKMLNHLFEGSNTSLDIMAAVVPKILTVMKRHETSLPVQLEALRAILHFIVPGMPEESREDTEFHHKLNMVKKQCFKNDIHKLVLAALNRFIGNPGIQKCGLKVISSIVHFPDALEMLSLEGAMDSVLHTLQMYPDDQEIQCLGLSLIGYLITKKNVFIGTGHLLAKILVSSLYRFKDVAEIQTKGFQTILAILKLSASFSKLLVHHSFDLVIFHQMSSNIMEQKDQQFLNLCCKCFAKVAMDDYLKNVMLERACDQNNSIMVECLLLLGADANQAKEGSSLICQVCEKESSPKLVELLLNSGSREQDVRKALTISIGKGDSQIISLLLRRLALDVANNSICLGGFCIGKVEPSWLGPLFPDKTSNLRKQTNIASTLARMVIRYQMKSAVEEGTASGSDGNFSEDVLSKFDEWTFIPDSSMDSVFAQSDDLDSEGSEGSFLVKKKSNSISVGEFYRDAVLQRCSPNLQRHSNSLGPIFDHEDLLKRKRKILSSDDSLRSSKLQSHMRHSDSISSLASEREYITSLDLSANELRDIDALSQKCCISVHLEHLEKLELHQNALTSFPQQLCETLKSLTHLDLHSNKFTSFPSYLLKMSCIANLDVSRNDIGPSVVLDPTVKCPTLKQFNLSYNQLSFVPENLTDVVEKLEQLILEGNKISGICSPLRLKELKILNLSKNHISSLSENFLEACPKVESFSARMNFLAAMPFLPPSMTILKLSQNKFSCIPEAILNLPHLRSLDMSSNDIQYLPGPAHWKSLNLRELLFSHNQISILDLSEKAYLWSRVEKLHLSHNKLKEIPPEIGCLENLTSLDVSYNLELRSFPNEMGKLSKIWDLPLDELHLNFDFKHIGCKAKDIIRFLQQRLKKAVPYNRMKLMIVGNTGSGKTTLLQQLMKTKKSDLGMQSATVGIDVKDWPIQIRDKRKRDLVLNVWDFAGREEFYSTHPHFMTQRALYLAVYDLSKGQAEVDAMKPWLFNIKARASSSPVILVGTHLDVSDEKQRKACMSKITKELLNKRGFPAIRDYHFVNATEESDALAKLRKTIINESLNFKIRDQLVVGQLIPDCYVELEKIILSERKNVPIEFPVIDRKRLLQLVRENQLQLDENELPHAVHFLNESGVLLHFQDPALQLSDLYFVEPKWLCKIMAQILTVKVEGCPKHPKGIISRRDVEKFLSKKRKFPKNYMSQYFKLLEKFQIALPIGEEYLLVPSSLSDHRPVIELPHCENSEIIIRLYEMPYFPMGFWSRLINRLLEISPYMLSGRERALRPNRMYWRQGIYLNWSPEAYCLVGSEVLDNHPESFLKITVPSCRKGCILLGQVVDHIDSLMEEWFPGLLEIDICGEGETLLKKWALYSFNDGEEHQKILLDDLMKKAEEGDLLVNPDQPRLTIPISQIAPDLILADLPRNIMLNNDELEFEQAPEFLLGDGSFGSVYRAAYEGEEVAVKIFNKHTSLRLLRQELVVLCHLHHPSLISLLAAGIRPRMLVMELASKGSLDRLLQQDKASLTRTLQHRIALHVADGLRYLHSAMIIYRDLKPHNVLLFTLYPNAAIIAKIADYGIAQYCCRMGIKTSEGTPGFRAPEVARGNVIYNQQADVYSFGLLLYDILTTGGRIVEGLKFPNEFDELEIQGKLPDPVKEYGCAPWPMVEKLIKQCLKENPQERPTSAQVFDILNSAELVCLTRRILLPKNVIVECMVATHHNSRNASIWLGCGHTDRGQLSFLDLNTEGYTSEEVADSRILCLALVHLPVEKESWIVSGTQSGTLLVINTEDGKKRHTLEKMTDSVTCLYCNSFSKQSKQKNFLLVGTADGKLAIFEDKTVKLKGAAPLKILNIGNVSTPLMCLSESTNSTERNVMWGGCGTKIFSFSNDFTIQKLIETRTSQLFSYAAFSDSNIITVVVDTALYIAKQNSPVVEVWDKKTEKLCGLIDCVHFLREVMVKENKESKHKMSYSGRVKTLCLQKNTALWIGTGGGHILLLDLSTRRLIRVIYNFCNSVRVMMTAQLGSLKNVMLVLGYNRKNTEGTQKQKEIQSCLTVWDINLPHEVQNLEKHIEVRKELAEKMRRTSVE

IC50 [1] | IC50 (purified LRRK2, Table 6, read-out: IC50) | SMILES
10 to 100 nM |  | CCn1nc(Cl)c2cnc(Nc3cnn(C4CN(C5COC5)C4)c3Cl)nc21 [Compound 61, 3-chloro-N-(5-chloro-1-(1-(oxetan-3-yl)azetidin-3-yl)-1H-pyrazol-4-yl)-1-ethyl-1H-pyrazolo[3,4-d]pyrimidin-6-amine]
10 to 100 nM |  | CCn1nc(Cl)c2cnc(Nc3cnn(C4CCN(S(C)(=O)=O)CC4)c3Cl)nc21 [Compound 62, 3-chloro-N-(5-chloro-1-(1-(methylsulfonyl)piperidin-4-yl)-1H-pyrazol-4-yl)-1-ethyl-1H-pyrazolo[3,4-d]pyrimidin-6-amine]
 | 8.2 nM | COc1cc(C(=O)N2CCC(N3CCN(C)CC3)CC2)ccc1Nc1ncc2c(n1)N(C)c1ccccc1C(=O)N2C [LRRK2-IN-1, reference compound]

— patent US11370796B2, “Substituted pyrazoles as LRRK2 inhibitors” (OSCOTEC INC., priority 2017, dated 2022)
